Series [1] concerns MOG35-55-induced EAE. Particulars: vector at MCS <2.5, PRDL at MCS ≥ 3.0 (FIG. 33A).
Description: Using 8-week-old Female C57BL/6 mice, EAE was induced with a myelin oligodendrocyte glycoprotein epitope (MOG35-55) in CFA. As mice developed disease (MCS 2.0± 0.5), mice were injected with a hepatocyte-directed viral vector encoding MOG (e.g., AAV.MOG vector) and began daily administration of prednisolone (PRDL) via oral gavage (10 mg/kg animal) every 24 hours until day 7. Control mice were treated with prednisolone only, without the administration of vector or with Null vector. At day 7, prednisolone treatment was discontinued, except for the half of the control group receiving treatment which continued receiving prednisolone.
An experiment was performed to assess the effect of supplementing rAAV therapy with PRDL in high clinical score mice. C57BL/6 mice were administered AAV.MOG or AAV.Null control at disease onset, or a mean clinical score of 2.0±0.5. Subsequently, at the peak of disease, or an MCS ≥ 3.0, mice were administered oral gavage of PRDL (10 mg/kg). […] Subsequently, at an MCS ≥ 3.0, mice were administered oral gavage of PRDL (10 mg/kg).
In an experiment in which the order of administrations was essentially reversed, C57BL/6 mice received AAV.MOG or AAV.Null after EAE developed to an MCS of 2.5 or higher. At the peak of disease (MCS ≥3.0), mice were started on oral gavage of PRDL as before.
In series [2] the test system is plasma alanine aminotransferase (ALT). In words: Plasma alanine aminotransferase (ALT) activity. It counts as in vivo, C57BL/6 mice. An excerpt:
Although various proteins have been safely expressed in the liver following AAV gene transfer,^89 evaluating the long-term stability of MOG expression in hepatocytes in the context of induced EAE was of interest. […] Additionally, hepatocyte expression of MOG persisted in the mice that received AAV8.MOG until termination of experiment at 200 days after EAE induction (FIG. 20A).
Plasma ALT levels were also monitored as an indicator of liver damage and failure of therapy. As reported above, the level of ALT activity detected in AAV8.MOG-treated mice and control mice was unremarkable throughout the rapamycin treatment window (FIGS. 24G and 24H). […] Based on the profound level of neurological impairment the control mice were experiencing, the significant rise in ALT is indicative of liver toxicity associated with end-stage organ failure (FIGS. 24B and 24C).

Series [3] concerns established MOG35-55-induced EAE. In words: Therapeutic AAV8.MOG with transient rapamycin immunosuppression in established EAE. It counts as in vivo, C57BL/6 mice. The protocol: Vector Administration. […] Two weeks later, EAE was induced. To evaluate the therapeutic effect of vector administration, EAE was induced first in 9- to 11-week-old mice before the administration of vectors. As mice reached the targeted/indicated severity of disease they were injected with […] of AAV8.MOG or control vector (scAAV.GFP or sham/PBS) via the tail vein. Rapamycin (LC Laboratories, Woburn, MA, USA) was dissolved in a vehicle solution containing (0.2% w/v) carboxymethyl-cellulose sodium salt (C-5013) and (0.25% v/v) polysorbate-80 (P-8074) (Sigma, St. Louis, MO, USA) in distilled water and stored at 4° C. protected from light according to the manufacturer’s instructions. Rapamycin (5 mg/kg) was given i.p. as indicated for a total of three and five doses beginning on the day of vector administration.
To test the hypothesis, the experimental parameters that previously produced the smallest degree of disease reversal were reestablished (FIG. 23C). EAE was induced and AAV8.MOG treatment was withheld until mice developed complete tail paralysis with hind-leg paresis (MCS: 1.4 ± 0.1, combined). Immediately after being treated with either AAV8.MOG or PBS/control, all mice received an intraperitoneal injection of rapamycin (5 mg/kg). Subsequently, mice received two additional doses of rapamycin (5 mg/kg) 48 hr apart (FIGS. 24). As expected, EAE disease progressed quickly and both groups of mice developed severe neurological deficits and paralysis (peak MCS: 2.9-3.0) (FIG. 24A). […] In contrast, neurological deficits in AAV8.MOG-treated mice continued to decrease, and all but one animal (90%) achieved complete remission (final MCS: 0.5 ± 0.3) (FIG. 24A).
Next, the effectiveness of the combined immunotherapy in late and end-stage EAE disease was tested. […] Remarkably, mice that received the AAV8.MOG/rapamycin immunotherapy, 71% (FIG. 24B) and 80% (FIG. 24C), respectively, responded to the treatment and went into near-complete remission (MCS: […]) by day ~30.

Series [4] has as its system CD4+CD25hiFOXP3+ Tregs. As to the kind of experiment: Peripheral blood Treg phenotyping before and after rapamycin. In kind it is in vivo, C57BL/6 mice. The conditions noted are these: after rapamycin. From the text: Flow Cytometry. Peripheral blood cells or splenocytes harvested from mice and processed to produce single-cell suspensions were stained with antibodies to CD3 (145-2C11), CD4 (RM4-5), CD25 (PC61), CD8 (53-6.7), B220 (RA3-6B2), CD44 (IM7), and CD62L (MEL14) (BD Biosciences, San Jose, CA, USA). Class II MHC tetramers included MOG38-49/I-Ab class II MHC (GWYRSPFSRVVH) and h.CLIP87-101 (PVSKMRMATPLLMQA), and were provided by the NIH Tetramer Core (Emory University, Atlanta, GA, USA). Red blood cell lysis was performed with VersaLyse (Beckman Coulter, Brea, CA, USA). Intracellular staining for FOXP3 was performed using the FOXP3 staining kit (eBioscience, San Diego, CA, USA). Samples were analyzed on an LSR-II flow cytometer (BD Biosciences) and post-analyzed using FCS Express 4 (Denovo Software, Los Angeles, CA, USA).
Rapamycin blocks the activation of a serine/threonine protein kinase called mammalian target of rapamycin (mTOR), which has a potent anti-proliferative effect on antigen-stimulated effector T and B cells. […] In contrast, when analyzed after the final rapamycin dose on day 10, there was an ~33% difference in total Tregs between control mice receiving rapamycin alone and AAV8.MOG-treated animals (FIGS. 24D and 24E).
CD44 is a cell-surface glycoprotein involved in cell-to-cell interactions that are important in activation, migration, and apoptosis.

Where two headings read alike, the source gives them in different places.

In the case of `C[C@]12C=CC(=O)C=C1CC[C@@H]1[C@@H]2[C@@H](O)C[C@@]2(C)[C@H]1CC[C@]2(O)C(=O)CO` [PRDL, prednisolone], the “effect of PRDL on induction of tolerance by vector” value is reported as “did not interfere with induction of tolerance” in series [1] and “did not interfere with, nor supplement, the ability of AAV.MOG to suppress EAE” in series [1] (listed as PDRL).
Consider `CO[C@H]1C[C@@H]2CC[C@@H](C)[C@@](O)(O2)C(=O)C(=O)N2CCCC[C@H]2C(=O)O[C@H]([C@H](C)C[C@@H]2CC[C@@H](O)[C@H](OC)C2)CC(=O)[C@H](C)/C=C(\C)[C@@H](O)[C@@H](OC)C(=O)[C@H](C)C[C@H](C)/C=C/C=C/C=C/1C` [rapamycin], for which, in series [2] (35 days post-treatment), the “plasma ALT levels” value is “significant increase in plasma ALT levels”. The “plasma ALT activity” value in series [2] (throughout the rapamycin treatment window) is “unremarkable”. Further, the “final MCS” value in series [3] (rapamycin-only control mice, 35 days post-treatment, late-stage cohorts) worked out at 3.6 ± 0.5; in series [3] (treated at MCS 1.4 ± 0.1, all mice rapamycin 5 mg/kg i.p. x3), 3.5 ± 0.3. The “mice relapsed by day 10” value in series [3] (treated at MCS 1.4 ± 0.1, rapamycin without vector) was found to be 100%. In addition, in series [4], the “increase in activated Tregs (CD4+CD44+CD25hiFOXP3+)” value is recorded as 10.5%.

Values taken from US20230263909A1, “ENHANCED EFFECTS OF GENE-IMMUNOTHERAPY AND IMMUNOSUPPRESSANTS IN MULTIPLE SCLEROSIS” (University of Florida Research Foundation, Incorporated, priority 2020, published 2023).
